# Results published in patent US20250064056A1, “CONTACT PHEROMONE-CONTAINING COMPOSITION FOR CONTROLLING THRIPS, KIT COMPOSITION FOR CONTROLLING THRIPS, AND METHOD OF CONTROLLING THRIPS BY USING SAME” (Andong National University Industry-Academic Cooperation …, priority 2023, published 2025).
# Legend:
# Type in all cases: in vivo
# Frankliniella intonsa [1] = experiment: Outdoor pest control test on open-field peppers, F. intonsa; settings: for Contol efficacy (%) (control value) / Survival (%) Mean / Survival (%) I / Survival (%) II / Survival (%) III: 3 days after treatment, dose a.i. μg/mL: 7MT 100, Spinetoram 12.5; for Survival (%) Mean: mean of 3 replicates; for Survival (%) I: replicate I; for Survival (%) II: replicate II; for Survival (%) III: replicate III
# Experimental: (§1) Each treatment was repeated three times using the egg mass method in open pepper production areas located in Songcheon-dong, Andong-si, Gyeongsangbuk-do. Each test group was pepper individuals, and the distance between these individuals was maintained at least 6 m. The amount of chemical agent sprayed on each pepper individual was 30 mL, and the chemical agent was sufficiently sprayed on the entire peppers. […] […] The control group was treated with a distilled chemical agent. The density of thrips was calculated before treatment and on days 1 and 3 after treatment. The classification of these three different thrips was carried out by using the shape identification method presented by Kim et al. (2021).
# (§2) For the indoor behavioral experiment, one-way ANOVA analysis was performed using PROC GLM (SAS Institute, 1989). The effectiveness of outdoor pest control was confirmed by calculating the survival rate and performing […] and two-way ANOVA analysis. Comparison between treatment means was determined based on a Type I error probability of 0.05 using an LSD method.
# (§3) A test was conducted to check the outdoor control efficiency by adding a contact pheromone causing behavior disruption to Spinetoram having a relatively high control efficiency against thrips. At the end of May 2023, when the test was conducted, Frankliniella occidentalis and Frankliniella intonsa appeared around peppers in open areas in the Andong region. By taking advantage of this situation, treatment with a chemical agent alone and treatment with a chemical agent/contact pheromone mixture were implemented. In the untreated control group, an increase in the density of two thrips was observed. However, in the mixed treatment with Spinetoram, an overall decrease in the density was clearly observed.
# (§4) To analyze the results in detail, a control value on the 3rd day of treatment was calculated. […] The average survival rate was lowered in all treatment cases compared to no treatment cases. […] At this time, when the contact pheromone was added, the control value increased for both thrips.
# [2] = system: Frankliniella occidentalis; experiment: Behavioral test (petri dish, treated vs control kidney bean feed), F. occidentalis; settings: 10 μL on filter paper, 10 minutes, FIG. 1B
# Experimental: (§5) FIGS. 1A, 1B, and 1C show the results of behavioral tests in a container for behavior analysis (A) for two types of thrips (F. occidentalis (B) and F. intonsa (C)), in the container for behavior analysis (A), a […] placed on a filter paper disk was treated with 7-methyltricosane (7TM), the control diet was treated with acid solvent, after 10 minutes, the number of thrips that reached each feed was counted, each treatment was repeated four times by exchanging the positions of the treatment and control groups, asterisk indicates a significant difference with type I error=0.05 (LSD test), and “NS” means no significant difference; and
# (§6) A filter paper was unfolded in the behavior test site, and two kidney beans were placed away at a distance of 50 mm as bait. Each of the test substances was applied on top of each feed. In the test substance treatment, 10 μL of 7TM substance was sprayed onto 5 mm circular filter paper. In the case of the control group, the same volume of hexane was sprayed onto a filter paper as a test substance. Each circular filter paper differently treated was placed on any one of the two kidney beans. Next, test individuals were placed in the center 40 mm away from both feed sources. Afterward, the individuals having reached each feed were counted for 10 minutes at room temperature. 10 individuals were used in each test, and each test was repeated 4 times. The positions of the control group and the treatment group were exchanged in each repetition. […]
# (§7) For the indoor behavioral experiment, one-way ANOVA analysis was performed using PROC GLM (SAS Institute, 1989). […] Comparison between treatment means was determined based on a Type I error probability of 0.05 using an LSD method.
# (§8) To analyze the behavioral responses of thrips with affinity for a contact pheromone, a behavior analysis container (shown in FIG. 1(A)) was manufactured using a petri dish. Thrips were prepared to be near the treated feed, and after inducing the behavioral responses for 10 minutes, some of the thrips staying near the pheromone-treated feed were counted.
# Frankliniella intonsa [3] = experiment: Behavioral test (petri dish, treated vs control kidney bean feed), F. intonsa; settings: 10 μL on filter paper, 10 minutes, FIG. 1C
# Experimental: as §5, §6, §7, §8
# [4] = system: Frankliniella occidentalis; experiment: Outdoor pest control test on open-field peppers, F. occidentalis; settings: for Contol efficacy (%) (control value) / Survival (%) Mean / Survival (%) I / Survival (%) II / Survival (%) III: 3 days after treatment, dose a.i. μg/mL: 7MT 100, Spinetoram 12.5; for Survival (%) Mean: mean of 3 replicates; for Survival (%) I: replicate I; for Survival (%) II: replicate II; for Survival (%) III: replicate III
# Experimental: as §1, §2, §3, §4
# Total thrips = experiment: Outdoor pest control test on open-field peppers, total thrips; settings: 3 days after treatment, dose a.i. μg/mL: 7MT 100, Spinetoram 12.5; for Survival (%) Mean: mean of 3 replicates; for Survival (%) I: replicate I; for Survival (%) II: replicate II; for Survival (%) III: replicate III
# Experimental: as §1, §2, §3, §4
# [5] = contact pheromone alone, 3rd day of treatment
Compound,Contol efficacy (%) (control value) (Frankliniella intonsa [1]),Survival (%) Mean (Frankliniella intonsa [1]) [%],Survival (%) I (Frankliniella intonsa [1]) [%],Survival (%) II (Frankliniella intonsa [1]) [%],Survival (%) III (Frankliniella intonsa [1]) [%],Contol efficacy (%) (control value) [4],Survival (%) Mean [4] [%],Survival (%) I [4] [%],Survival (%) II [4] [%],Survival (%) III [4] [%],Contol efficacy (%) (control value) (Total thrips),Survival (%) Mean (Total thrips) [%],Survival (%) I (Total thrips) [%],Survival (%) II (Total thrips) [%],Survival (%) III (Total thrips) [%],other results
"CCCCCCCCCCCCCCCCC(C)CCCCCC (centres unmarked) [7MT, 7-Methyltricosane]",32.2,115.7,133.3,150.0,63.6,31.2,358.3,500.0,300.0,275.0,12.4,222.2,300.0,233.3,133.3,"density of thrips vs no treatment (in words) (Frankliniella intonsa [1]; [5]): statistically significantly reduced; behavioral response to pheromone-treated feed ([2]; F. occidentalis adult females): high preference; behavioral response to pheromone-treated feed ([2]; F. occidentalis adult males): avoiding feed sprayed with the contact pheromone; behavioral response to pheromone-treated feed ([2]; F. occidentalis second-instar larvae): did not show specific selection behavior; behavioral response to pheromone-treated feed (Frankliniella intonsa [3]; F. intonsa adult females): high preference; behavioral response to pheromone-treated feed (Frankliniella intonsa [3]; F. intonsa adult males): avoiding feed sprayed with the contact pheromone; behavioral response to pheromone-treated feed (Frankliniella intonsa [3]; F. intonsa second-instar larvae): did not show specific selection behavior; density of thrips vs no treatment (in words) [4, 5]: it was not"
Spinetoram [reference compound],80.3,33.6,40.0,22.2,38.5,71.9,146.4,150.0,175.0,114.3,76.2,60.5,73.3,46.2,61.1,–
